# Results: patent US6440996B1, “Monomeric and dimeric heterocycles, and therapeutic uses thereof” (priority 1998, dated 2002)
# Counter-ions that a name gives are not always drawn.
# Assays:
# [1] = molecular target: T1, dopamine transporter (Rattus norvegicus, UniProt P23977); test: [3H]WIN 35,428 binding to rat striatal membranes / dopamine transporter binding (DAT)
# T1 construct: from tissue; P2 synaptosomes for uptake
# Description: Determination of inhibitory binding potencies of analogues at dopamine, serotonin, and norepinephrine transporters are carried out using standard receptor binding assays which are known in the art.
# A. Dopamine Transporter Binding (DAT)
# [2] = molecular target: T1, dopamine transporter; test: Inhibition of high-affinity [3H]dopamine uptake into rat striatal nerve endings (synaptosomes); format: biochemical
# Description: A. [^3H]Dopamine Uptake Studies
# The effect of candidate compounds in antagonizing dopamine high-affinity uptake was determined using a method previously employed. For [^3H]DA uptake, dissected rat striata were homogenized with a Teflon-glass pestle in ice-cold 0.32 M sucrose and centrifuged for 10 min at 1000×g. The supernatant was centrifuged at 17,500×g for 20 min. This P2 synaptosomal pellet was resuspended in 30 volumes of ice-cold modified KRH buffer. An aliquot of the synaptosomal suspension was preincubated with the buffer and drug for 30 min at 37° C., and uptake initiated by the addition of [^3H]dopamine (5 nM, final concentration). After 5 min, uptake was terminated by adding 5 mL of cold buffer containing glucosamine as a substitute for NaCl and then finally by rapid vacuum filtration over GF-C glass fiber filters, followed by washing with two 5 mL volumes of ice-cold, sodium-free buffer. Radioactivity retained on the filters was determined by liquid scintillation spectrometry. […] It is identical to that calculated by subtracting the mean of identical tubes incubated at 0° C.
# [3] = IC50 (nM) [3H]WIN 35,428 binding, rat striatal membranes, Table 1
# [4] = Table 2, read-out: DAT IC50 (nm)
# [5] = Table 2, unit inferred, read-out: Dopamine Uptake
# [6] = rat striatal synaptosomes, Table 1, read-out: IC50 (nM) [3H]dopamine uptake
# T1 sequence (P23977 whole entry): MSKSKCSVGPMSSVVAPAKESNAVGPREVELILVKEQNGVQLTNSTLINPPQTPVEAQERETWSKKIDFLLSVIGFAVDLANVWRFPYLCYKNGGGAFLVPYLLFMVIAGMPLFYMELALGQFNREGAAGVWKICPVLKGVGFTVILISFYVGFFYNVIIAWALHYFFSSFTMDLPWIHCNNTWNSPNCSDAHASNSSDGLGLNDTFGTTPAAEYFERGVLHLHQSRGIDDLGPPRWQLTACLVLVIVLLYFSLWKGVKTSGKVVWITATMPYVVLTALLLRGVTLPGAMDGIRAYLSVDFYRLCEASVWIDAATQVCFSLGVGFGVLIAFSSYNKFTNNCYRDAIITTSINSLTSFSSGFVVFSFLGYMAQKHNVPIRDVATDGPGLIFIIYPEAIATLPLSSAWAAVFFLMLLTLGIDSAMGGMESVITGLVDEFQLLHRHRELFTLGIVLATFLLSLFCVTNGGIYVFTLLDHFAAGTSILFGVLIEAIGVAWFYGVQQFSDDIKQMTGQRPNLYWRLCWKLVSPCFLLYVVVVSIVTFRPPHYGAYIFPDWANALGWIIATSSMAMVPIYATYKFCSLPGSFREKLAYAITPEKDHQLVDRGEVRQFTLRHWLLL
Structure (SMILES),"IC50 ([1]; DAT IC50 (nm), Table 2) [nM]","IC50 [1, 3] [nM]","IC50 [2, 5] [nM]","IC50 [2, 6] [nM]",further results
"COC(=O)C1(C)CN(C)CCC1c1ccc(Cl)cc1 (single isomer, unassigned; (-)) [Compound 49, (−)-Methyl 4β-(4-Chlorophenyl)-3β-methyl-1-methylpiperidine-3b-carboxylate]",1970,,,,
"CC(=O)OCC1CN(C)CCC1c1ccc(Cl)cc1 (single isomer, unassigned; (+)) [Compound 14, (+)-3α-(Acetoxymethyl)-4β-(4-chlorophenyl)-1-methylpiperidine]",461,461 ± 11,,,
"CN1CCC(c2ccc(Cl)cc2)C(CO)C1 (single isomer, unassigned; (+)) [Compound 6, (+)-4β-(4-Chlorophenyl)-3β-(hydroxymethyl)-1-methylpiperidine]",442,442 ± 32,,,
"CN1CCC(c2ccc(Cl)cc2)C(C(=O)Oc2ccccc2)C1 (single isomer, unassigned; (-)) [Compound 60, (−)-Phenyl 4β-(4-Chlorophenyl)-1-methylpiperidine-3b-carboxylate]",39,,,,
"CCc1ccc(C2CCN(C)CC2C(=O)OC)cc1I (single isomer, unassigned; (-)) [Compound 66, (−)-Methyl 4β-(4-Ethyl-3-iodophenyl)-1-methylpiperidine-3β-carboxylate]",4410,,,,
"CN1CC[C@H](c2ccc(Cl)cc2)[C@@H](CCCF)C1 [Compound 80, (+)-4β-(4-Chlorophenyl)-3α-(3-fluoropropyl)-1-methylpiperidine]",28,,,,
COC(=O)C1CN(C)CCC1c1ccc(Cl)cc1 (racemic) [1 · HCl],53,,,,
"CN1CCC(c2ccc(Cl)cc2)C(CCCS)C1 (single isomer, unassigned; (+)) [Compound 55]",,,,,"IC50 [1, 4]: 28 nM"
"CN1CCC(c2ccc(Cl)cc2)C(CO)C1 (single isomer, unassigned; (+)) [Compound 13, (+)-4β-(4-Chlorophenyl)-3α-(hydroxymethyl)-1-methylpiperidine]",240,240 ± 18,864,683 ± 47,
"COC(=O)[C@@H]1CN(C)CC[C@@H]1c1ccccc1 [Compound 10, (−)-Methyl 1-Methyl-4β-phenylpiperidine-3β-carboxylate]",797,769 ± 19,,,
"CC(=O)OCC1CN(C)CCC1c1ccc(Cl)cc1 (single isomer, unassigned; (+)) [Compound 8, (+)-3β-(Acetoxymethyl)-4β-(4-chlorophenyl)-1-methylpiperidine]",928,928 ± 43,2030,2030 ± 82,
"COC(=O)C1CN(C)CCC1c1ccc(Cl)cc1 (single isomer, unassigned; (+)) [Compound 4, (+)-Methyl 4β-(4-Chlorophenyl)-1-methylpiperidine-3β-carboxylate]",,,5090,5090 ± 172,
"CCc1ccc(C2CCN(C)CC2C(=O)OC)cc1 (single isomer, unassigned; (+)) [Compound 67, (+)-Methyl 4β-(4-Ethylphenyl)-1-methylpiperidine-3α-carboxylate]",,,,,"IC50 [1, 4]: 7340 nM"
"CCC[C@@H]1CN(C)CC[C@@H]1c1ccc(Cl)cc1 [Compound 9, (−) 4β-(4-Chlorophenyl)-1-methyl-3β-n-propylpiperidine]",,,8,8.3 ± 0.6,"IC50 [1, 4]: 3 nM; IC50 ([1]; rat striatal membranes, Table 1, read-out: IC50 (nM) [3H]WIN 35,428 binding): 3 ± 0.5 nM; IC50 ([1]; read-out: binding affinity): 3 nM; fold more potent than cocaine in binding affinity ([1]; relative to cocaine): 33 fold; fold more potent than cocaine in inhibition of dopamine uptake ([2]; relative to cocaine): 29 fold"
"CN1CC[C@H](c2ccc(Cl)cc2)[C@H](CO)C1 [Compound 5, (−)-4β-(4-Chlorophenyl)-3β-(hydroxymethyl)-1-methylpiperidine]",75,75.3 ± 6.2,49,49 ± 3,
"CCc1ccc(C2CCN(C)CC2C(=O)OC)cc1I (single isomer, unassigned; (+)) [Compound 68, (+)-Methyl 4β-(4-Ethyl-3-iodophenyl)-1-methylpiperidine-3α-carboxylate]",1420,,,,
